Source: patent US4068001A, “Method of medical treatment of pancreatic insufficiency” (priority 1976, dated 1978)

Assays:
[1] = Solubility of Coenzyme Q10 (properties); format: physicochemical
Excerpt: Coenzymes Q used in the present invention, for example, Coenzyme Q10 (the compound in which n = 10 in the above formula), can be mainly obtained synthetically, although it is possible to extract Coenzyme Q from animal organs. The physical and chemical properties of Coenzyme Q10 produced synthetically are as follows.

rabbits = test: Subacute oral toxicity test in rabbits (23 days); format: in vivo, rabbit
Method: Coenzyme Q10 was compulsorily and orally administered every day for 23 days to each group consisting of six male rabbits and five female rabbits. The dose was 6, 60 and 600 mg/Kg/day, respectively. Coenzyme Q10 was used in the form of gum Arabic suspension, whereas the solution containing gum Arabic alone was used as the control group, On the 24th day, blood samples were collected from all the animals, and three males and two females from each group were then selectively autopsied.

rats of Wistar strain [2] = test: Subacute oral toxicity test in rats (5 weeks); format: in vivo, rat (Wistar strain)
Method: (§1) Coenzyme Q10 was compulsorily and orally administered every day for 5 weeks to each group consisting of 10 male rats and 10 female rats of Wistar strain. The dose was 40, 200, and 1000 mg/Kg/day, respectively. Coenzyme Q10 was used in the form of gum Arabic suspension, while the solution containing gum Arabic alone was used as the control group. Collection of blood and urine samples and autopsies were carried out 5 weeks after the initiation of administration.

[3] = tested on: pancreas external secretion; test: Quantity of pancreatic juice secreted after pancreozymin in anesthetized rats; format: in vivo, rat (male Wistar)
Method: (§2) Male Wistar rats weighing 300-400 g were fasted for 14-20 hours and then anesthetized with 1 g/Kg of urethane. A stainless steel tube was inserted into the common bile duct at the opening to the duodenum and fixed thereto (pancreatic cannula) to take out pancreatic juice. The common bile duct was ligated at an upper portion and a polyethylene tube was inserted into the bile duct and fixed thereto to allow the bile to flow outward. The pylorus was ligated. The medicament was administered into a femoral vein through the polyethylene tube.
(§3) The quantity of the pancreatic juice was measured by using a calibrated silicone rubber tube fitted to the pancreatic duct cannula. The tube was changed every 10 minutes.
(§4) Coenzyme Q10 was solubilized in water with Nikkol HCO-60 before use. An aqueous solution of Nikkol HCO-60 was used as placebo.
(§5) Coenzyme Q10 (3 mg/100 g body weight) and the placebo were administered to the rats through the femoral vein. After 60 minutes, pancreozymin (0.2 Crick, Harper and Raper unit/100 g body weight) was administered through the femoral vein.
(§6) FIGS. 1 and 2 show the quantities of pancreatic juice secreted when placebo was administered and when Coenzyme Q10 was administered, respectively. In FIGS. 1 and 2, the ordinates represent the quantity of the pancreatic juice secreted (μl/min./100 g body weight) and the abscissae represent time (min.). FIGS. 3 and 4 show the quantities of amylase secreted when placebo was administered and when Coenzyme Q10 was administered, respectively. In FIGS. 3 and 4, the ordinates represent quantity of amylase secreted (unit/min./100 g body weight) and the abscissae represent time (min.). In FIGS. 1-4, the values are average values ± standard deviation. The arrows in the figures indicate the times when Coenzyme Q10, placebo and pancreozymin were administered.

rats = test: Teratogenesis test in rats; format: in vivo, rat; settings: rats, 6, 60, 600 mg/Kg/day
rats of Wistar strain [4] = test: Chronic oral toxicity test in rats (26 weeks); format: in vivo, rat (Wistar strain)
Method: Coenzyme Q10 was compulsorily and orally administered to each group consisting of 10 male rats and 10 female rats of Wistar strain for consecutive 26 weeks in a ratio of 6 days a week. The dose was 6, 60 and 600 mg/Kg/day, respectively. Coenzyme Q10 was used in the form of gum Arabic suspension, whereas the solution containing gum Arabic alone is used as the control group. Collection of blood and urine samples and autopsies were carried out 26 weeks after the administration.

mice = test: Teratogenesis test in mice; format: in vivo, mouse; settings: mice, 6, 60, 600 mg/Kg/day
[5] = Overall conclusion of acute, subacute, chronic toxicity and teratogenesis tests; format: in vivo; settings: conclusion from all toxicity tests
Excerpt: (§7) In order to evaluate the acute toxicity of a single high dose administration of Coenzyme Q10, male and female rats of Wistar strain and male and female mice of ICR-JCL strain were used, and oral, intramuscular, subcutaneous, and intravenous administrations were studied. For the oral administration of Coenzyme Q10, a gum Arabic suspension was used. For the intramuscular, subcutaneous and intravenous administrations, Coenzyme Q10 was used as a solution containing a nonionic surfactant, Nikkol HCO-60 . Nikkol HCO-60 is a trade mark of a non-ionic surfacent comprised of hydrogenated castor oil/polyoxyethylene-60 mole ether available from Nikko Chemicals, Co. Ltd., Japan.
(§8) Observation was carried out for 7 days by using six males and six females for each dose group.
as §1
Coenzyme Q10 was compulsorily and orally administered every day for 23 days to each group consisting of six male rabbits and five female rabbits. […]

rats of Wistar strain [6] = test: Acute toxicity test in rats (single high dose); format: in vivo, rat (Wistar strain)
Excerpt: as §7, §8

[7] = tested on: amylase of the pancreatic juice; test: Quantity of amylase secreted in pancreatic juice after pancreozymin in anesthetized rats; format: in vivo, rat (male Wistar)
Method: as §2, §3
Amylase activity of the pancreatic juice was determined by Kanno's method [Journal of Physiology (London) Vol. 245, P. 599 (1975)]. One amylase unit indicates a unit of amylase activity producing 1 mg of maltose by incubation of 37° C for 5 minutes.
as §4, §5, §6

mice of ICR-JCL strain = test: Acute toxicity test in mice (single high dose); format: in vivo, mouse (ICR-JCL strain)
Excerpt: as §7, §8

[8] = 6, 60, 600 mg/Kg/day oral, 23 days
[9] = 40, 200, 1000 mg/Kg/day oral, 5 weeks
[10] = 3 mg/100 g femoral vein, after pancreozymin
[11] = 10 minutes after pancreozymin, Coenzyme Q10 3 mg/100 g i.v. (femoral vein) 60 minutes before
[12] = 6, 60, 600 mg/Kg/day oral, 26 weeks
[13] = spontaneous pneumonia and aspiration pneumonia due to erroneous administration, dose group not stated
[14] = any administration group, 7 days
[15] = intramuscular, Nikkol HCO-60 solution, single dose, 7 days
[16] = intravenous, Nikkol HCO-60 solution, single dose, 7 days
[17] = maximum dose in each administration route
[18] = oral, gum Arabic suspension, single dose, 7 days observation
[19] = relative to maximum doses of Table 1
[20] = subcutaneous, Nikkol HCO-60 solution, single dose, 7 days

COC1=C(OC)C(=O)C(C/C=C(\C)CC/C=C(\C)CC/C=C(\C)CC/C=C(\C)CC/C=C(\C)CC/C=C(\C)CC/C=C(\C)CC/C=C(\C)CC/C=C(\C)CCC=C(C)C)=C(C)C1=O [Coenzyme Q10]
solubility in acetone ([1]; acetone): soluble
solubility in benzene ([1]; benzene): easily soluble
solubility in carbon tetrachloride ([1]; carbon tetrachloride): easily soluble
solubility in chloroform ([1]; chloroform): easily soluble
solubility in ethanol ([1]; ethanol): insoluble
solubility in ether ([1]; ether): soluble
solubility in methanol ([1]; methanol): hardly soluble
solubility in water ([1]; water): hardly soluble
general condition and increase of body weight versus control group (rabbits; [8]): no difference
hematological test and biochemical test of blood (rabbits; [8]): Abnormal findings were not obtained
weight of each organ (rabbits; [8]): no effect on the weight of each organ
electron-microscopic observation of liver (rabbits; 7th, 14th and 24th days): there were not recognized abnormal findings on the minute structure of the liver
macroscopical and histological observation (rabbits; hematoxylin-eosine staining and liver fat staining): abnormalities were not recognized
toxicity (conclusion) (rabbits; oral, 23 days): there were not recognized the findings wherein the toxicity of Coenzyme Q10 will be suggested
general condition and body weight versus control group (rats of Wistar strain [2]; [9]): no difference
hematological test and biochemical test of blood and urine (rats of Wistar strain [2]; [9]): No significant change was recognized
weight of each organ (rats of Wistar strain [2]; [9]): no significant change
macroscopical and histological observation (rats of Wistar strain [2]; hematoxylin-eosine staining and liver fat staining, 5 weeks): abnormality was not recognized
toxicity (conclusion) (rats of Wistar strain [2]; oral, 5 weeks): there was not recognized the toxicity seemingly due to the administration
dead animals during the experiment (rats of Wistar strain [2]; spontaneous pneumonia and aspiration pneumonia due to error of administration, dose group not stated): four
fourth response, quantity of pancreatic juice, P versus placebo [3, 10]: < 0.05
quantity of pancreatic juice secreted, comparison with placebo group [3, 10]: significantly superior
second response, quantity of pancreatic juice, P versus placebo [3, 10]: < 0.02
third response, quantity of pancreatic juice, P versus placebo [3, 10]: < 0.02
first response, quantity of pancreatic juice secreted, ratio to placebo group [3, 11]: about 1.5 times
adverse effects in mothers, fetuses and newborns (rats): no adverse effects were noted
body weight (rats of Wistar strain [4]; [12]): increased the same as that of the control group
general condition versus control group (rats of Wistar strain [4]; [12]): no difference
weights of organs (rats of Wistar strain [4]; 26 weeks): no significant increase and decrease
leukocytal percentages (rats of Wistar strain [4]; hematological findings, 26 weeks): some increase and decrease, but do not provide the mutual relation depending upon the dose; the percentages being within the range of physiological fluctuations
macroscopical and histological observation (rats of Wistar strain [4]; hematoxylin-eosine staining and liver fat staining, versus control group): abnormalities were not recognized
toxicity (conclusion) (rats of Wistar strain [4]; oral, 26 weeks): no toxicity was observed
deaths, females (rats of Wistar strain [4]; [13]): three
deaths, males (rats of Wistar strain [4]; [13]): 11 males
biochemical tests of blood and urine (rats of Wistar strain [4]; versus control group, 26 weeks): No significant changes were recognized
adverse effects in mothers, fetuses and newborns (mice): no adverse effects were noted
overall safety [5]: a very safe drug, without side-effects
acute toxicity (conclusion) (rats of Wistar strain [6]): extremely low
general condition, body weight, food intake, autopsy findings (rats of Wistar strain [6]; [14]): no change was recognized
Maximum dose (no case of deaths), intramuscular (rats of Wistar strain [6]; [15]): 500 mg/kg
Maximum dose (no case of deaths), intravenous (rats of Wistar strain [6]; [16]): 250 mg/kg
deaths (rats of Wistar strain [6]; [17]): no case of deaths
Maximum dose (no case of deaths), oral (rats of Wistar strain [6]; [18]): 4000 mg/kg
LD50 (rats of Wistar strain [6]; [19]): far higher than the maximum dose mentioned above
Maximum dose (no case of deaths), subcutaneous (rats of Wistar strain [6]; [20]): 500 mg/kg
second through fourth responses, quantity of amylase, P versus placebo ([7]; 3 mg/100 g femoral vein, after pancreozymin, all cases): higher than 0.05
first response, quantity of amylase secreted, ratio to placebo group [7, 11]: about 1.6 times
quantity of amylase secreted, comparison with placebo group ([7]; second through fourth responses, 3 mg/100 g femoral vein, after pancreozymin): significantly superior
acute toxicity (conclusion) (mice of ICR-JCL strain): extremely low
general condition, body weight, food intake, autopsy findings (mice of ICR-JCL strain; [14]): no change was recognized
Maximum dose (no case of deaths), intramuscular (mice of ICR-JCL strain; [15]): 500 mg/kg
Maximum dose (no case of deaths), intravenous (mice of ICR-JCL strain; [16]): 250 mg/kg
deaths (mice of ICR-JCL strain; [17]): no case of deaths
Maximum dose (no case of deaths), oral (mice of ICR-JCL strain; [18]): 4000 mg/kg
LD50 (mice of ICR-JCL strain; [19]): far higher than the maximum dose mentioned above
Maximum dose (no case of deaths), subcutaneous (mice of ICR-JCL strain; [20]): 500 mg/kg
